Key:
[1] = test system: 6-OHDA-lesioned hemi-parkinsonian rats; assay: Experiment 1: forepaw adjusting steps (FAS); assay type: in vivo, Sprague-Dawley rats
Excerpt: (§1) Conti et al., 2014). […] Forepaw adjusting steps (FAS): The FAS test is a measure of forelimb akinesia performed according to previous protocols (Bishop et al., 2012; Chang et al., 1999). Data are presented as mean percent intact stepping where the sum of the total steps with the lesioned forepaw was divided by the total steps with the unlesioned forepaw multiplied by 100. Lower percent intact scores indicate greater forelimb akinesia. Prior to baseline, rats received 2 acclimation periods. On-treatment FAS was performed 60 min post-L-DOPA.

[2] = test system: 6-OHDA-lesioned hemi-parkinsonian rats; assay: Experiment 2: AIMs, LID development in L-DOPA-naive hemi-parkinsonian rats; assay type: in vivo, Sprague-Dawley rats; settings: treatment naive rats; VZD 10 or 20 mg/kg + L-DOPA 6 mg/kg, 3 weeks; vs Vilazodone (0 mg/kg)+L-DOPA (6 mg/kg)
Method: Baseline forepaw adjusting step (FAS) data was collected 3 weeks after sham or […] lesion surgery, but prior to LD exposure. Sham animals received daily VZD (0 mg/kg)+L-DOPA (0 mg/kg) and 6-OHDA-lesioned animals received daily VZD (0, 10 or 20 mg/kg; s.c.)+LD (6 mg/kg; s.c.). All VZD injections were administered 5 min prior to LD. (FIG. 2A) AIMs and (FIG. 2B) FAS were evaluated on days 1, 8, 15, and 22. AIMs values expressed are the median sum of axial, limb, and orolingual (ALO) behaviors. ALO AIMs were evaluated every 10 min for 3 h post-LD administration. Values are expressed as medians [±median absolute difference (M.A.D.)]. FAS were evaluated 60 min post LD and are expressed as the mean overall steps […] to lesion multiplied by 100.
After recovery, FAS established baseline motor disability. 6-OHDA-lesioned animals were divided into 3 equally disabled groups. […] AIMs ([…]) and FAS (FIG. 2B) were measured on Days 1, 8, 15, and 22 of treatment.
Beginning 10 min post-treatment, a trained and blinded observer assigned a severity score (0-4) to each of the ALO AIMs based on 1 min ratings every 10 min for 3 h: 0, not present; 1, present from 1-29 s; 2, present 30-59 s; 3, present all 60 s, but interruptible by a cylinder tap; 4, present 60 s and not interruptible by a cylinder tap.

[3] = test system: 6-OHDA-lesioned hemi-parkinsonian rats; assay: Experiment 2: forepaw adjusting steps (FAS); assay type: in vivo, Sprague-Dawley rats; settings: Vilazodone 10 mg/kg + L-DOPA 6 mg/kg; by Day 15
Method: as §1, with “[…].). All VZD injections were administered 5 min prior to LD. […] AIMs values expressed are the median sum of axial, limb, and orolingual (ALO) behaviors. […] Values are expressed as medians [±median absolute difference (M.A.D.)].” for “Conti et al., 2014).”

[4] = test system: MSNs of dyskinetic 6-OHDA-lesioned rats; assay: Example 2: electrophysiology of corticostriatal transmission and striatal MSN activity; assay type: in vivo; settings: vilazodone co-administration with L-DOPA
Method: Rats were treated for 5 consecutive days/week, for 2 weeks. On the second day of each week, stepping tests were performed prior to drug administration, and 60 minutes post L-DOPA treatment. Behavioral assessment of LIDs was performed (30-180 min) at the end of each week. […] Electrophysiological studies were conducted to assess the impact of these treatments on corticostriatal transmission and striatal neuronal activity.

5-HT1A receptor = biological target: T1, 5-HT1A receptor (Homo sapiens, UniProt P08908); settings: cited from earlier work
T1 sequence (P08908 1-422): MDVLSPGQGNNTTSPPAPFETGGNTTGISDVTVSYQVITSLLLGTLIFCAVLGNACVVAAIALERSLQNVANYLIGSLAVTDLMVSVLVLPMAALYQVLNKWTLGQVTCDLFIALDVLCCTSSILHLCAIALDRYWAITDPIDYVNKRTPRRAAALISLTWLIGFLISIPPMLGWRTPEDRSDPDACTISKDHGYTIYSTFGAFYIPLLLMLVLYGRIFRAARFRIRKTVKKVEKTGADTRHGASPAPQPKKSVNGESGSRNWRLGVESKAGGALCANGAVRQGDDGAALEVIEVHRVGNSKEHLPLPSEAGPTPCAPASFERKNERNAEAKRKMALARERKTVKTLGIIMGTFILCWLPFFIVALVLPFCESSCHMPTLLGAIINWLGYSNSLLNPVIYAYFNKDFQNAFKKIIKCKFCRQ

5-HT2C = 5-HT2C (Homo sapiens, UniProt P28335); settings: cited from earlier work
[5] = test system: striatal and raphe tissue monoamines; assay: Experiment 1: HPLC of tissue monoamines and metabolites in striatum and dorsal raphe nucleus; settings: for 5-HIAA / 5-HT / 5-HT Turnover / DA Turnover / DOPAC / DA: 60 min post-LD
Method: Three-weeks post-lesion, animals were divided into 2 equally disabled groups, measured by forepaw adjusting steps (FAS, see below). One group (n=8) began receiving 14 days of daily vehicle (0.9% NaCl+0.1% ascorbic acid) and the other (n=22) received L-DOPA methyl ester (6 mg/kg, s.c.; Sigma)+DL-serine 2-(2,3,4-trihydroxybenzyl) hydrazine hydrochloride (benserazide; 15 mg/kg, s.c.; Sigma), hereafter L-DOPA, dissolved in vehicle at a volume of 1 mg/kg. Treatment persisted for 14 days to produce stable AIMs expression (Putterman et al., 2007; Conti et al., 2014). Thereafter, L-DOPA-treated animals with Axial, Limb, and Orolingual (ALO) AIMs (see description below, FIG. 1A)<30 were excluded from the study and the remaining L-DOPA-treated animals were divided into 3 equally dyskinetic groups. […] Daily injections continued over 23 days, with behavior assayed on Days 15, 22, 29, and 36. On Day 37, animals were killed 60 min post-treatment Left and right dorsal striata and DRN were dissected and flash frozen for HPLC analyses.
High-performance liquid chromatography (HPLC): HPLC, a method for semi-automated catecholamine analysis with coulometric detection, was performed according to prior protocols (Bishop et al., 2009) to determine the tissue levels of monoamines, their metabolites, and monoamine turnover in the striatum and DRN. The limit of detection for DOPAC, DA, 5-hydroxyindoleacetic acid (5-HIAA) and 5-HT was 10^−10 M. Final oxidation current values were plotted on a standard curve from 10^−6 M to 10^−9 M and expressed as pg of monoamine or metabolite per mg of tissue unless otherwise specified.
On the final treatment day, animals were sacrificed 60 min post-LD treatment and left and right striata and dorsal raphe nucleus (DRN) were collected for high performance liquid chromatography (HPLC) analysis. Values (means±standard mean error) are expressed as picograms of monoamine or metabolite per milligram wet tissue weight. Turnover estimates were determined by dividing a subjects metabolite value by its corresponding monoamine. Differences were assessed by a 2×4 (lesion×treatment) ANOVA, followed by Fisher's LSD post-hocs when appropriate. *p<0.01 vs lesion vs intact; +p<0.05 vs all; ^p<0.05 vs VZD (0)+LD (0); #p<0.05 vs VZD (0)+LD (6)

[6] = Dorsal Raphe Nucleus, VZD(10) + LD(6) mg/kg
[7] = Dorsal Raphe Nucleus, VZD(20) + LD(6) mg/kg
[8] = Striatum, Intact, VZD(10) + LD(6) mg/kg
[9] = Striatum, Intact, VZD(20) + LD(6) mg/kg
[10] = Striatum, Lesion, VZD(10) + LD(6) mg/kg
[11] = Striatum, Lesion, VZD(20) + LD(6) mg/kg

5-HT2C, sequence (P28335 33-458, species assumed): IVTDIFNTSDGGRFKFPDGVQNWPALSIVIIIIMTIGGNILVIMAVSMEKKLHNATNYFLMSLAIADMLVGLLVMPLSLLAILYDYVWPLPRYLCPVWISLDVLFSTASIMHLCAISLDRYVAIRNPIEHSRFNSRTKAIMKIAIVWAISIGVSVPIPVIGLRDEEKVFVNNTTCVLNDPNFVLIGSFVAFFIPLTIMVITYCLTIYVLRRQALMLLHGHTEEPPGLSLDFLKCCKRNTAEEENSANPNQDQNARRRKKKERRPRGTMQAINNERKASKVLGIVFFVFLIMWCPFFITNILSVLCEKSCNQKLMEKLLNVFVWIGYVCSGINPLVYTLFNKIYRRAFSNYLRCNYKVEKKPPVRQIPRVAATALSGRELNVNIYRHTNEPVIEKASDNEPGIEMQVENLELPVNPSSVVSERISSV

Cl.N#Cc1ccc2[nH]cc(CCCCN3CCN(c4ccc5oc(C(N)=O)cc5c4)CC3)c2c1 [Vilazodone, 5-{4-[4-(5-cyano-3-indolyl)-butyl]-1-piperazinyl}-benzofuran-2-carboxamide hydrochloride]
FAS motor performance versus baseline ([1]; L-DOPA-primed rats, VZD 0, 10 or 20 mg/kg + L-DOPA 6 mg/kg, 60 min post-L-DOPA): improvements in rats treated with Vilazodone emerged 7 days later | FAS stepping versus Vilazodone (0 mg/kg)+L-DOPA (6 mg/kg) ([1]; VZD 20 mg/kg, Day 29, effect transient): depressed stepping | ALO AIMs, development of LID [2]: significantly attenuated the development of LID | FAS, pro-motor effects versus Vilazodone (0)+L-DOPA (6 mg/kg) [3]: significantly enhanced the pro-motor effects of L-DOPA | spike probability and onset latency [4]: normalizes spike probability and onset latency | 5-HT1A receptor IA (5-HT1A receptor): 60-70% | affinity for 5-HT2C (5-HT2C): negligible affinity | 5-HIAA [5, 6]: 2541 ± 187^ picograms per milligram wet ti | 5-HT [5, 6]: 7013 ± 462^^ picograms per milligram wet ti | 5-HT Turnover [5, 6]: 0.37 ± 0.02 | DA Turnover [5, 6]: 7.60 ± 0.78 | DOPAC [5, 6]: 1175 ± 234 picograms per milligram wet ti | 5-HIAA [5, 7]: 1985 ± 345^ picograms per milligram wet ti | 5-HT [5, 7]: 5946 ± 776^ picograms per milligram wet ti | 5-HT Turnover [5, 7]: 0.32 ± 0.03 | DA [5, 7]: 128 ± 15.2 picograms per milligram wet ti | DA Turnover [5, 7]: 7.19 ± 1.12 | DOPAC [5, 7]: 909 ± 186 picograms per milligram wet ti | 5-HIAA [5, 8]: 470 ± 35.5 picograms per milligram wet ti | 5-HT [5, 8]: 326 ± 24.3 picograms per milligram wet ti | 5-HT Turnover [5, 8]: 1.45 ± 0.04 | DA [5, 8]: 4827 ± 222 picograms per milligram wet ti | DA Turnover [5, 8]: 0.85 ± 0.05 | DOPAC [5, 8]: 4138 ± 332^ picograms per milligram wet ti | 5-HIAA [5, 9]: 422 ± 38.6 picograms per milligram wet ti | 5-HT [5, 9]: 305 ± 33.5 picograms per milligram wet ti | 5-HT Turnover [5, 9]: 1.41 ± 0.07 | DA [5, 9]: 4560 ± 337 picograms per milligram wet ti | DA Turnover [5, 9]: 0.84 ± 0.03 | DOPAC [5, 9]: 3839 ± 306 picograms per milligram wet ti | 5-HIAA [5, 10]: 842 ± 78.8 picograms per milligram wet ti | 5-HT [5, 10]: 261 ± 30.7 picograms per milligram wet ti | 5-HT Turnover [5, 10]: 3.38 ± 0.31 | DA [5, 10]: 128 ± 14.2 picograms per milligram wet ti | DA Turnover [5, 10]: 1.56 ± 0.18 | 5-HIAA [5, 11]: 596 ± 55.1+ picograms per milligram wet ti | 5-HT [5, 11]: 223 ± 23.8 picograms per milligram wet ti | 5-HT Turnover [5, 11]: 2.84 ± 0.33^ | DA [5, 11]: 128 ± 26.2 picograms per milligram wet ti | DA Turnover [5, 11]: 1.50 ± 0.15 | DOPAC [5, 11]: 190 ± 44.6 picograms per milligram wet ti | DRN 5-HT ([5]; Vilazodone 10 mg/kg + L-DOPA): significantly increased DRN 5-HT | striatal 5-HT Turnover ([5]; Vilazodone 20 mg/kg, compared to Vilazodone (0 mg/kg)+L-DOPA (0 mg/kg)): reduced 5-HT Turnover | striatal 5-HIAA (printed 5-HIM) ([5]; Vilazodone 20 mg/kg, compared to all other treatments): attenuated 5-HIM | DRN DA Turnover ([5]; Vilazodone 10 or 20 mg/kg + L-DOPA): attenuated | DA in the lesioned striatum ([5]; both doses (10, 20 mg/kg) + L-DOPA vs groups receiving Vilazodone vehicle): significantly increased DA | DRN 5-HT Turnover ([5]; both doses of Vilazodone + L-DOPA): attenuated 5-HT Turnover

— patent US20210393621A1, “COMBINATION SEROTONIN SPECIFIC REUPTAKE INHIBITOR AND SEROTONIN 1A RECEPTOR PARTIAL AGONIST FOR REDUCING L-DOPA-INDUCED DYSKINESIA” (The Research Foundation for The State University of new York, priority 2018, published 2021)
